Legend:
Assay type in all cases: cell-based, human
HPRT [1] = test: CRISPR knock-in of Pol-II-driven shRNA into CCR5 region of K562 cells, 6-TG selection, HPRT staining; details: for obvious cytotoxicity in K562 cells: knock-in
Description: It has been well known that some polymerase III-dependent short-hairpin RNAs have overexpression issues and can induce acute cytotoxicity. […] This is an important concern when considering the use of RNA interference (RNAi) as a potential therapeutic approach, especially in stem cell gene therapy. Here, polymerase II was used as alternative promoter to express microRNA so as to effectuate knockdown of the expression of HPRT. A CRISPR/Cas9 gene editing approach was utilized, and a Cas9 with a single guide RNA (Cas9 RNP) targeting CCR5, together with a single-stranded DNA oligonucleotide donor (ssODN) encoding an HPRT Pol II driven shRNA, was used to enable efficient replacement of the CCR5 locus with a functional HPRT miRNA. […] For knock-in of sh211 and sh734, the obvious cytotoxicity in K562 cells was not observed.

HPRT [2] = test: HPRT knockdown in transduced K562 cells (qRT-PCR); details: after 6TG treatment
Experimental: With reference to FIG. 50, K562 cells were transduced with TL20c-rGbGM-7SK/sh734 or TL20c GbG^M21 days before initiating 6TG treatment. RNA was isolated and qRT-PCRT was performed to determine the number of copies of sh734 relative to RNU38B and normalized to VCN (relative expression/VCN). Relative expression levels of sh734 and HPRT were determined every two weeks post-transduction. The graph illustrated sh734 plotted on the left Y-axis and the percent of HPRT knockdown related to mock transduced cells (HPRT/mock×100) and normalized to VCN plotted on the right Y axis.
K562 cells were transduced with the sh7-GFP mono-vector reporter construct or CAL-H for 21 days before initiating 6TG. RNA was isolated, and qRT-PCR performed to determine the number of copies of sh734 relative to RNU38B and normalized to VCN (relative expression/VCN). FIGS. 51A and 51B illustrates the percent HPRT knockdown relative to mock transduced cells (HPRT/mock×100) normalized to VCN is plotted on the right Y axis. […] 14 days after selection, HPRT levels became undetectable in transduced cultures. 6TG selected K562 cells continued to grow and express sh734 after 3-months in culture (data not shown). […] At day 21, K562 cultures transduced with the sh7-GFP reporter construct were 35% GFP+ and increased to 88% GFP+ cells by day 42 following 6TG treatment.

K562 cells = test: in vitro 6TG selection and stability of transduced K562 cells (VCN, % GFP+); details: 6TG selected
Experimental: 4) 2×10^5 cells of control K562, 6 samples transduced at dilution factor 32 and 6 samples transduced at dilution factor 1 are reseeded in 6-well plate with 4 mL of RPMI without and with 300 nM of 6-thioguanine, respectively. 2.5×10^6 cells of 6 samples transduced at dilution factor 1 are made through mixing transduced and untransduced cells at ratio of 1:3. Two cell pellets (1×10^6 cells each) for DNA & RNA analysis for these 6 samples will be frozen down. The medium is refreshed every 3-4 days. K562 transduced with TL20cw-7SK/sh734-GFP (dilution factor at 256 and 8) will be included as positive controls.
5) Two cell pellets (1×10^6 cells each) for DNA & RNA analysis for 13 samples including control K562 will be frozen down at day 7/14/21 or even 28(MY). Copy numbers of GbG and sh734 are analyzed. The samples at day 21/28 are optional if the copy numbers of all samples are higher than 95% of expected value for day 14. […]
K562 cells were transduced with sh734 for 21 days before initiating 6TG treatment for 14 days (shaded areas). With reference to FIGS. 49A through 49G, vector copy number (VCN) was determined every two weeks from genomic DNA by multiplex RU5 qPCR and absolute quantitation from a standard curve using lentiviral vector (HIV-1-based LTR R-U5) target and human Apolipoprotein B (ApoB) reference sequences. […]

sh211: shRNA targeting an HPRT gene, SEQ ID NO: 28 (GGTTATGACCTTGATTTATACCTGACCCATATTAAATCAAGGTCATAACCTTTTT)
obvious cytotoxicity in K562 cells (HPRT [1]): not observed

sh734: shRNA targeting an HPRT gene, SEQ ID NO: 30 (AGGATATGCCCTTGACTATTTGTCCGACATAGTCAAGGGCATATCCTTTTTT)
HPRT levels (HPRT [2]): less than 10 % of untreated cells | duration of sh734 expression and function in culture (K562 cells): greater than 3 months | obvious cytotoxicity in K562 cells (HPRT [1]): not observed

B1: sh211-3G: sh211 embedded in the miRNA-3G backbone, SEQ ID NO: 25; Pol-II (EF1a) driven (nucleic acid)
chain: CCGGATCAACGCCCTAGGTTTATGTTTGGATGAACTGACATACGCGTATCCGTCTTTTAAATCAAGGTCATAACCGTAGTGAAATATATATTAAACAGGTTATGACCTTGATTTAAAATACGGTAACGCGGAATTCGCAACTATTTTATCAATTTTTTGCGTCGAC
modifications: Synthetic miRNA211-3G
notes: Pol-II (EF1a) driven
HPRT levels (HPRT staining) (HPRT [1]; K562 cells after three weeks of 6-TG selection, control 99%): 12%

From patent US11795461B2, “Compositions and methods for treating beta-hemoglobinopathies” (CSL Behring Gene Therapy, Inc., priority 2017, dated 2023)
